Assay results from EP4722207A1, “OXOISOINDOLINYL-SUBSTITUTED TETRAHYDROPYRIMIDINEDIONE DERIVATIVE AND USE THEREOF” (Gluetacs Therapeutics (Shanghai) Co., Ltd., priority 2023, dated 2024).

Columns and labels:
Format in all cases: cell-based
[1] = target: T1, IKZF1 (Homo sapiens, UniProt Q13422+Q96SW2); assay: Western-blot assay, substrate protein degradation in hPBMCs: IKZF1; conditions: for substrate protein remaining % IKZF1: 24 hours of compound treatment, 50 nM and 500 nM; for IKZF1 substrate protein remaining %: compounds at 50 nM and 500 nM, 24 hours
T1 construct: effects of the compounds of the present disclosure on the expression of target proteins in cells; endogenous in cells; host or cells: human PBMCs (hPBMCs)

[2] = target: T2, CK1α (Homo sapiens, UniProt P48729+Q96SW2); assay: Western-blot assay, substrate protein degradation in hPBMCs: CK1α; conditions: for substrate protein remaining % CK1α: 24 hours of compound treatment, 50 nM and 500 nM; for CK1α substrate protein remaining %: compounds at 50 nM and 500 nM, 24 hours
T2 construct: effects of the compounds of the present disclosure on the expression of target proteins in cells; endogenous in cells; host or cells: human PBMCs (hPBMCs)

[3] = target: T3, GSPT1 (Homo sapiens, UniProt P15170+Q96SW2); assay: Western-blot assay, substrate protein degradation in hPBMCs: GSPT1; conditions: for substrate protein remaining % GSPT1: 24 hours of compound treatment, 50 nM and 500 nM; for GSPT1 substrate protein remaining %: compounds at 50 nM and 500 nM, 24 hours
T3 construct: effects of the compounds of the present disclosure on the expression of target proteins in cells; endogenous in cells; host or cells: human PBMCs (hPBMCs)

[4] = target: T4, WEE1 (Homo sapiens, UniProt P30291+Q96SW2); assay: Western-blot assay, substrate protein degradation in hPBMCs: WEE1; conditions: for substrate protein remaining % WEE1: 24 hours of compound treatment, 50 nM and 500 nM; for WEE1 substrate protein remaining %: compounds at 50 nM and 500 nM, 24 hours
T4 construct: effects of the compounds of the present disclosure on the expression of target proteins in cells; endogenous in cells; host or cells: human PBMCs (hPBMCs)

[5] = target: T5, IKZF3 (Homo sapiens, UniProt Q96SW2+Q9UKT9); assay: Western-blot assay, substrate protein degradation in hPBMCs: IKZF3; conditions: for substrate protein remaining % IKZF3: 24 hours of compound treatment, 50 nM and 500 nM; for IKZF3 substrate protein remaining %: compounds at 50 nM and 500 nM, 24 hours
T5 construct: effects of the compounds of the present disclosure on the expression of target proteins in cells; endogenous in cells; host or cells: human PBMCs (hPBMCs)

[6] = target: T6, IKZF2 (Homo sapiens, UniProt Q96SW2+Q9UKS7); assay: Western-blot assay, substrate protein degradation in hPBMCs: IKZF2; conditions: for substrate protein remaining % IKZF2: 24 hours of compound treatment, 50 nM and 500 nM; for IKZF2 substrate protein remaining %: compounds at 50 nM and 500 nM, 24 hours
T6 construct: effects of the compounds of the present disclosure on the expression of target proteins in cells; endogenous in cells; host or cells: human PBMCs (hPBMCs)

T1 sequence (Q13422 whole entry): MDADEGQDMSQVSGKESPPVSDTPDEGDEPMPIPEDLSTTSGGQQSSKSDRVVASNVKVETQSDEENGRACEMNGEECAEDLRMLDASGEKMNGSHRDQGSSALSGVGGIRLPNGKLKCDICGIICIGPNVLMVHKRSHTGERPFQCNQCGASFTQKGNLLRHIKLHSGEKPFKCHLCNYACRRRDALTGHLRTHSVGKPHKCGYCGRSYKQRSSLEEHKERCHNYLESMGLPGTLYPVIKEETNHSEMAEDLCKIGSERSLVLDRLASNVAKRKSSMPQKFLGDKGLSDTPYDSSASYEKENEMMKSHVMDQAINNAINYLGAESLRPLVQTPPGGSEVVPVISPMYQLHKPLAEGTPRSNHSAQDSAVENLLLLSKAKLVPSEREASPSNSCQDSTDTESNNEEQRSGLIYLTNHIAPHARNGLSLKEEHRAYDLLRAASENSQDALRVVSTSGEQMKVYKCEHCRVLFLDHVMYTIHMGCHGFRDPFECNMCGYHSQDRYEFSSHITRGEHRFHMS
T1 sequence (Q96SW2 whole entry): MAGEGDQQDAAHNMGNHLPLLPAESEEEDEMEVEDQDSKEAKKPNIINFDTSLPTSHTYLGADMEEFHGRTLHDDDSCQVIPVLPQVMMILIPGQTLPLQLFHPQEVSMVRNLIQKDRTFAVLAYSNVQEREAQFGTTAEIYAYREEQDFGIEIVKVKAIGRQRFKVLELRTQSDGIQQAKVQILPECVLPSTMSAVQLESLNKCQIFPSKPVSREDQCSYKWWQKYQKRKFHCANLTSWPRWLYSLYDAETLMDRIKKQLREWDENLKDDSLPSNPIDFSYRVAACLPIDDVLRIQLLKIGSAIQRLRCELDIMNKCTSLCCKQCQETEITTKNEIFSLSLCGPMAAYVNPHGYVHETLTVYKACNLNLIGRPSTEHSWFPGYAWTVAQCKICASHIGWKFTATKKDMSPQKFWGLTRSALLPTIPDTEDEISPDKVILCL
T1 sequence (Q16531 whole entry partner): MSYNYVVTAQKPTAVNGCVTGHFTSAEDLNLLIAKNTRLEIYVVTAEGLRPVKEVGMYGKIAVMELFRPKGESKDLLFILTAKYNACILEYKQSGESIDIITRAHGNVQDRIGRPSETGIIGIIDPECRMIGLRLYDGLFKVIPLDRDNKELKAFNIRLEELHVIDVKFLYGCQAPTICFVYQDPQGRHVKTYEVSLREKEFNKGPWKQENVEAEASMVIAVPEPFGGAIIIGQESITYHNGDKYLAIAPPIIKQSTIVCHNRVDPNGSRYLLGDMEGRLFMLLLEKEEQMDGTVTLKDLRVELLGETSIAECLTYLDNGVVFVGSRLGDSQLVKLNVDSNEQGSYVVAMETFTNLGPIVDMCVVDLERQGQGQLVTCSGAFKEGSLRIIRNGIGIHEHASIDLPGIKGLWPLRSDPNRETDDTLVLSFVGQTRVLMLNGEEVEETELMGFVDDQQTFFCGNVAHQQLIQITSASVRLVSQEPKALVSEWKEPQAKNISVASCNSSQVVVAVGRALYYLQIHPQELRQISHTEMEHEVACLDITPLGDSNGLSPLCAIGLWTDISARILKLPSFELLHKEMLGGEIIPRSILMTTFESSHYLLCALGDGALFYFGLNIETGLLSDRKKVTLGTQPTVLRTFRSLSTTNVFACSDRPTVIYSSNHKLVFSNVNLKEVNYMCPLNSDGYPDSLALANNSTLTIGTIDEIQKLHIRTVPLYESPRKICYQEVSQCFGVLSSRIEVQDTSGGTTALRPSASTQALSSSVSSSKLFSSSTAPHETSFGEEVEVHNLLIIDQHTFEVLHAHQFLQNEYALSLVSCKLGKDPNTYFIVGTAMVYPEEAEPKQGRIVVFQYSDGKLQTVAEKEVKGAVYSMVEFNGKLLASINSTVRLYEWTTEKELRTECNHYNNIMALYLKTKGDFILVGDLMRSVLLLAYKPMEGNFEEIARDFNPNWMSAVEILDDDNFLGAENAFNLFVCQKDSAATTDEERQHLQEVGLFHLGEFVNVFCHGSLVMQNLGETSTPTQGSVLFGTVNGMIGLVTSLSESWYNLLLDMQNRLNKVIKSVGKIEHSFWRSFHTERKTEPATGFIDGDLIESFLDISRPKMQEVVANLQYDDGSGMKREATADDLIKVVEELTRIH
T4 sequence (P30291 whole entry): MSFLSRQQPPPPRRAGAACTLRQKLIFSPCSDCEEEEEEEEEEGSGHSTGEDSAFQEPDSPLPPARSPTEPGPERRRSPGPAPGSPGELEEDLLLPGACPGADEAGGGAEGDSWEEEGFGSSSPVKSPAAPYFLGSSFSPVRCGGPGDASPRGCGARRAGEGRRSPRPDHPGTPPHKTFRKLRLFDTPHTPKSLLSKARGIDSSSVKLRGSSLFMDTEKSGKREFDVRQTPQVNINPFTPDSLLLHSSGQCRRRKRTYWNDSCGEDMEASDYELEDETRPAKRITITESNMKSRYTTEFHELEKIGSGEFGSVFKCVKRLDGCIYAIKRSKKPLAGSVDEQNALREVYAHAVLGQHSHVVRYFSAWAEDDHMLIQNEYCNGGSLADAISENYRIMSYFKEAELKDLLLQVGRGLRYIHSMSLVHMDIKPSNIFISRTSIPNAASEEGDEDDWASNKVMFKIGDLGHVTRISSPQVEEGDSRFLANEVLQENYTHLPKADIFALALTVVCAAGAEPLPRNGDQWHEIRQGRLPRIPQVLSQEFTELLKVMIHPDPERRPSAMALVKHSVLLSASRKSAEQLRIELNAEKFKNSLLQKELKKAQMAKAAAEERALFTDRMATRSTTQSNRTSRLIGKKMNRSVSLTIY
T4 sequence (Q96SW2 whole entry): as the sequence (Q96SW2 whole entry) above
T4 sequence (Q16531 whole entry partner): as the sequence (Q16531 whole entry partner) above
T2 sequence (P48729 whole entry): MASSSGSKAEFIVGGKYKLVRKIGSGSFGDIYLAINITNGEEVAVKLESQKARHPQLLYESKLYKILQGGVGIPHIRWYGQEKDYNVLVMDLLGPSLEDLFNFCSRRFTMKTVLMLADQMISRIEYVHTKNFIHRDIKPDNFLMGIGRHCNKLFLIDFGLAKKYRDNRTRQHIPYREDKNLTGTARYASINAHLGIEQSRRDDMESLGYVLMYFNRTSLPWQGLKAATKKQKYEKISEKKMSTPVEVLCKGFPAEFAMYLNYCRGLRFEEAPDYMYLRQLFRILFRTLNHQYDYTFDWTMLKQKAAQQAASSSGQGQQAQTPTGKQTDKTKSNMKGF
T2 sequence (Q96SW2 whole entry): as the sequence (Q96SW2 whole entry) above
T2 sequence (Q16531 whole entry partner): as the sequence (Q16531 whole entry partner) above
T3 sequence (P15170 whole entry): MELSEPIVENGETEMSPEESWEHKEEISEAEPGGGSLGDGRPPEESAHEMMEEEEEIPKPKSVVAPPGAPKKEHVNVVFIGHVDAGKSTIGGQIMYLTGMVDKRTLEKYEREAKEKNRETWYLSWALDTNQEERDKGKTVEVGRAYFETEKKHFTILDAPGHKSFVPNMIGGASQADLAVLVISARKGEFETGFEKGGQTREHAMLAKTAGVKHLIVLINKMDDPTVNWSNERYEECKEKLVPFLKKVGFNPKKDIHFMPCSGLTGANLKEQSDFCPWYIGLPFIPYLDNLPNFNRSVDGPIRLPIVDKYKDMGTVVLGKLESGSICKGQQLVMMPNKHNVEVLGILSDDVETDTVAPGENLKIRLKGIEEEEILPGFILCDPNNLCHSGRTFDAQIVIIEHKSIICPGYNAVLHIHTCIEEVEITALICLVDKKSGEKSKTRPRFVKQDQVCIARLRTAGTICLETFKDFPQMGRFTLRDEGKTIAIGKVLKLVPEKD
T3 sequence (Q96SW2 whole entry): as the sequence (Q96SW2 whole entry) above
T3 sequence (Q16531 whole entry partner): as the sequence (Q16531 whole entry partner) above
T5 sequence (Q9UKT9 whole entry): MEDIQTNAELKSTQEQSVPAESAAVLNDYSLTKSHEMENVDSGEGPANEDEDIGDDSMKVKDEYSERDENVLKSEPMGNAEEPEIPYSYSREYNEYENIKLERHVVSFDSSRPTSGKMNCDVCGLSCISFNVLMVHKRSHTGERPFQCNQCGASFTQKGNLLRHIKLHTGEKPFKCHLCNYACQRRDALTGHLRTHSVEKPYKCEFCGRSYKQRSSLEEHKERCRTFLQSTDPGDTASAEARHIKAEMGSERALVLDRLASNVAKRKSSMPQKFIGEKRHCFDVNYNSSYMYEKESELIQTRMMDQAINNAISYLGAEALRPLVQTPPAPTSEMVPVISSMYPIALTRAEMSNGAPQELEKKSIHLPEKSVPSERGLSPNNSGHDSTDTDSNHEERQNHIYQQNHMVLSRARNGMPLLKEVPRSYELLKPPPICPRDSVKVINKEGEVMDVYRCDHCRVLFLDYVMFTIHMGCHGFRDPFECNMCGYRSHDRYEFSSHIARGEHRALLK
T5 sequence (Q96SW2 whole entry): as the sequence (Q96SW2 whole entry) above
T5 sequence (Q16531 whole entry partner): as the sequence (Q16531 whole entry partner) above

Row | Structure (SMILES) | substrate protein remaining % IKZF1 [1] | substrate protein remaining % CK1α [2] | substrate protein remaining % GSPT1 [3] | substrate protein remaining % WEE1 [4] | substrate protein remaining % IKZF3 [5] | substrate protein remaining % IKZF2 [6] | IKZF1 substrate protein remaining % [1] | CK1α substrate protein remaining % [2] | GSPT1 substrate protein remaining % [3] | WEE1 substrate protein remaining % [4] | IKZF3 substrate protein remaining % [5] | IKZF2 substrate protein remaining % [6]
1 | O=C1CCN(N2Cc3cc(CN4CC(c5ccnc6cc(F)ccc56)C4)ccc3C2=O)C(=O)N1 [GT-07711, 1-(5-((3-(7-fluoroquinolin-4-yl)azetidin-1-yl)methyl)-1-oxoisoindolin-2-yl)dihydropyrimidine-2,4(1H,3H)-dione] | A (0% ≤ substrate protein remaining % ≤ 80%) | A (0% ≤ substrate protein remaining % ≤ 80%) | A (0% ≤ substrate protein remaining % ≤ 80%) | B (80%< substrate protein remaining %≤ 100%) | A (0% ≤ substrate protein remaining % ≤ 80%) | A (0% ≤ substrate protein remaining % ≤ 80%) |  |  |  |  |  | 
2 | O=C1CCN(N2C(=O)c3ccc(CN4CCC(c5c[nH]c6cc(F)ccc56)CC4)cc3C2=O)C(=O)N1 [GT-05259, 2-(2,4-dioxotetrahydropyrimidin-1(2H)-yl)-5-((4-(6-fluoro-1H-indol-3-yl)piperidin-1-yl)methyl)isoindoline-1,3-dione] |  |  |  |  |  |  | A ("A" is defined as 0% ≤ substrate protein remaining % ≤ 80%) | B ("B" is defined as 80%< substrate protein remaining %≤ 100%) | A ("A" is defined as 0% ≤ substrate protein remaining % ≤ 80%) | B ("B" is defined as 80%< substrate protein remaining %≤ 100%) | B ("B" is defined as 80%< substrate protein remaining %≤ 100%) | A ("A" is defined as 0% ≤ substrate protein remaining % ≤ 80%)
3 | O=C1CCN(N2C(=O)c3ccc(CN4CCN(c5ccc(F)cn5)CC4)cc3C2=O)C(=O)N1 [GT-06965, 2-(2,4-dioxotetrahydropyrimidin-1(2H)-yl)-5-((4-(5-fluoropyridin-2-yl)piperazin-1-yl)methyl)isoindoline-1,3-dione] |  |  |  |  |  |  | B ("B" is defined as 80%< substrate protein remaining %≤ 100%) | B ("B" is defined as 80%< substrate protein remaining %≤ 100%) | B ("B" is defined as 80%< substrate protein remaining %≤ 100%) | B ("B" is defined as 80%< substrate protein remaining %≤ 100%) | B ("B" is defined as 80%< substrate protein remaining %≤ 100%) | A ("A" is defined as 0% ≤ substrate protein remaining % ≤ 80%)
4 | O=C1CCN(N2C(=O)c3ccc(CN4CCCN(c5cccc(Cl)c5Cl)CC4)cc3C2=O)C(=O)N1 [GT-07439, 5-((4-(2,3-dichlorophenyl)-1,4-diazepan-1-yl)methyl)-2-(2,4-dioxotetrahydropyrimidin-1(2H)-yl)isoindoline-1,3-dione] | B (80%< substrate protein remaining %≤ 100%) | A (0% ≤ substrate protein remaining % ≤ 80%) | A (0% ≤ substrate protein remaining % ≤ 80%) | B (80%< substrate protein remaining %≤ 100%) | B (80%< substrate protein remaining %≤ 100%) | B (80%< substrate protein remaining %≤ 100%) |  |  |  |  |  | 
5 | O=C1CCN(N2C(=O)c3ccc(CN4CCC(c5cccc(Cl)c5Cl)CC4)cc3C2=O)C(=O)N1 [GT-05250, 5-((4-(2,3-dichlorophenyl)piperidin-1-yl)methyl)-2-(2,4-dioxotetrahydropyrimidin-1(2H)-yl)isoindoline-1,3-dione] |  |  |  |  |  |  | B ("B" is defined as 80%< substrate protein remaining %≤ 100%) | B ("B" is defined as 80%< substrate protein remaining %≤ 100%) | B ("B" is defined as 80%< substrate protein remaining %≤ 100%) | B ("B" is defined as 80%< substrate protein remaining %≤ 100%) | B ("B" is defined as 80%< substrate protein remaining %≤ 100%) | A ("A" is defined as 0% ≤ substrate protein remaining % ≤ 80%)
6 | O=C1CCN(N2Cc3cc(CN4CCN(c5ncncn5)CC4)ccc3C2=O)C(=O)N1 [GT-07031, 1-(5-((4-(1,3,5-triazin-2-yl)piperazin-1-yl)methyl)-1-oxoisoindolin-2-yl)dihydropyrimidine-2,4(1H,3H)-dione] |  |  |  |  |  |  | A ("A" is defined as 0% ≤ substrate protein remaining % ≤ 80%) | A ("A" is defined as 0% ≤ substrate protein remaining % ≤ 80%) | A ("A" is defined as 0% ≤ substrate protein remaining % ≤ 80%) | B ("B" is defined as 80%< substrate protein remaining %≤ 100%) | A ("A" is defined as 0% ≤ substrate protein remaining % ≤ 80%) | B ("B" is defined as 80%< substrate protein remaining %≤ 100%)
7 | O=C1CCN(N2Cc3cc(CN4CCC(=C5CCOc6cc(F)ccc65)CC4)ccc3C2=O)C(=O)N1 [GT-07588, 1-(5-((4-(7-fluorochroman-4-ylidene)piperidin-1-yl)methyl)-1-oxoisoindolin-2-yl)dihydropyrimidine-2,4(1H,3H)-dione] | B (80%< substrate protein remaining %≤ 100%) | B (80%< substrate protein remaining %≤ 100%) | A (0% ≤ substrate protein remaining % ≤ 80%) | B (80%< substrate protein remaining %≤ 100%) | B (80%< substrate protein remaining %≤ 100%) | B (80%< substrate protein remaining %≤ 100%) |  |  |  |  |  | 
8 | O=C1CCN(N2Cc3cc(CN4CCN(C(c5ccccc5)c5ccncc5)CC4)ccc3C2=O)C(=O)N1 (stereo not drawn) [GT-04891, 1-(1-oxo-5-((4-(phenyl(pyridin-4-yl)methyl)piperazin-1-yl)methyl)isoindolin-2-yl)dihydropyrimidine-2,4(1H,3H)-dione] |  |  |  |  |  |  | A ("A" is defined as 0% ≤ substrate protein remaining % ≤ 80%) | B ("B" is defined as 80%< substrate protein remaining %≤ 100%) | A ("A" is defined as 0% ≤ substrate protein remaining % ≤ 80%) | B ("B" is defined as 80%< substrate protein remaining %≤ 100%) | B ("B" is defined as 80%< substrate protein remaining %≤ 100%) | A ("A" is defined as 0% ≤ substrate protein remaining % ≤ 80%)
9 | O=C1CCN(N2Cc3cc(CN4CCc5sccc5C4)ccc3C2=O)C(=O)N1 [GT-07720, 1-(5-((6,7-dihydrothieno[3,2-c]pyridin-5(4H)-yl)methyl)-1-oxoisoindolin-2-yl)dihydropyrimidine-2,4(1H,3H)-dione] | A (0% ≤ substrate protein remaining % ≤ 80%) | A (0% ≤ substrate protein remaining % ≤ 80%) | A (0% ≤ substrate protein remaining % ≤ 80%) | A (0% ≤ substrate protein remaining % ≤ 80%) | A (0% ≤ substrate protein remaining % ≤ 80%) | A (0% ≤ substrate protein remaining % ≤ 80%) |  |  |  |  |  | 
10 | O=C1CCN(N2C(=O)c3ccc(CN4CCC(c5cccc(C(F)(F)F)c5)CC4)cc3C2=O)C(=O)N1 [GT-06880, 2-(2,4-dioxotetrahydropyrimidin-1(2H)-yl)-5-((4-(3-(trifluoromethyl)phenyl)piperidin-1-yl)methyl)isoindoline-1,3-dione] |  |  |  |  |  |  | B ("B" is defined as 80%< substrate protein remaining %≤ 100%) | B ("B" is defined as 80%< substrate protein remaining %≤ 100%) | B ("B" is defined as 80%< substrate protein remaining %≤ 100%) | A ("A" is defined as 0% ≤ substrate protein remaining % ≤ 80%) | B ("B" is defined as 80%< substrate protein remaining %≤ 100%) | B ("B" is defined as 80%< substrate protein remaining %≤ 100%)
11 | O=C1CCN(N2Cc3cc(CN4CCC(c5ccnc(Cl)c5Cl)CC4)ccc3C2=O)C(=O)N1 [GT-06390, 1-(5-((4-(2,3-dichloropyridin-4-yl)piperidin-1-yl)methyl)-1-oxoisoindolin-2-yl)dihydropyrimidine-2,4(1H,3H)-dione] |  |  |  |  |  |  | B ("B" is defined as 80%< substrate protein remaining %≤ 100%) | B ("B" is defined as 80%< substrate protein remaining %≤ 100%) | A ("A" is defined as 0% ≤ substrate protein remaining % ≤ 80%) | B ("B" is defined as 80%< substrate protein remaining %≤ 100%) | B ("B" is defined as 80%< substrate protein remaining %≤ 100%) | B ("B" is defined as 80%< substrate protein remaining %≤ 100%)
12 | O=C1CCN(N2Cc3cc(CN4C5CCC4CN(C(c4ccccc4)c4ccccc4)C5)ccc3C2=O)C(=O)N1 [GT-06454, 1-(5-((3-benzhydryl-3,8-diazabicyclo[3.2.1]octan-8-yl)methyl)-1-oxoisoindolin-2-yl)dihydropyrimidine-2,4(1H,3H)-dione] |  |  |  |  |  |  | B ("B" is defined as 80%< substrate protein remaining %≤ 100%) | B ("B" is defined as 80%< substrate protein remaining %≤ 100%) | B ("B" is defined as 80%< substrate protein remaining %≤ 100%) | A ("A" is defined as 0% ≤ substrate protein remaining % ≤ 80%) | B ("B" is defined as 80%< substrate protein remaining %≤ 100%) | B ("B" is defined as 80%< substrate protein remaining %≤ 100%)
